In PMC7255010, “Small-molecule activating SIRT6 elicits therapeutic effects and synergistically promotes anti-tumor activity of vitamin D3 in colorectal cancer” (Theranostics, 2020):
Like-named read-outs stand apart in the source and are kept apart here.

Key:
Format in all cases: cell-based
FHC cells = test: LDH assay of cytotoxicity in FHC cells; conditions: 48 h
Description: Cell cytotoxicity was assessed by measuring LDH release from damaged or dead cells using a Cytotoxicity LDH Assay Kit-WST (Dojindo) following the manufacturer's instructions. Briefly, 5 × 10^3 cells per well were plated in 96-well plates. […] The final DMSO concentration in the medium was 0.1%. The amount of LDH leakage from the cells was determined by measuring the absorbance at 490 nm using a microplate reader (Synergy H4 Hybrid Reader, BioTek). The percentage of cytotoxicity was calculated as follows: [(test sample - low control)/ (high control - low control)] × 100, where low control is the absorbance of the culture medium without any added extract, and high control is the absorbance of the culture medium in which the cells were treated with 1% (v/v) Triton X-100 to achieve 100% LDH release. Each data point is presented as the mean ± s.d. of three independent experiments.

Caco2 = test: Cell proliferation, CCK-8; conditions: Homo sapiens, Caco-2; Caco2, CCK8, 48 h
Description: (§1) Cell proliferation was evaluated using a Cell Counting Kit-8 (CCK-8) (Dojindo) following the manufacturer's instructions. Briefly, CRC cells were plated in 96-well plates at a density of 5 × 10^3 cells per well. […] Cells treated with DMSO were used as the […] controls, and the final DMSO concentration in the medium was 0.1%. After 48 h of treatment, 10 μL of CCK-8 solution was added to every well and incubated for 1 h at 37 °C. Then, a microplate reader (Synergy H4 Hybrid Reader, BioTek) was used to measure the absorbance of the solvent at 450 nm. The background of drug and culture medium has been deducted in each well. The relative cell proliferation of each treatment group was expressed as the percentage change relative to the […] control group. Each data point is the mean ± s.d. of two or three independent experiments.

SW48 = test: Cell proliferation, CCK-8; conditions: Homo sapiens; SW48, CCK8, 48 h
Description: as §1

T84 = test: Cell proliferation, CCK-8; conditions: Homo sapiens; T84, CCK8, 48 h
Description: as §1

SW1463 = test: Cell proliferation, CCK-8; conditions: Homo sapiens; SW1463, CCK8, 48 h
Description: as §1

Colo201 = test: Cell proliferation, CCK-8; conditions: Homo sapiens, COLO 201; Colo201, CCK8, 48 h
Description: as §1

HCT8 = test: Cell proliferation, CCK-8; conditions: Homo sapiens, HCT-8; HCT8, CCK8, 48 h
Description: as §1

HCT116 = test: Cell proliferation, CCK-8; conditions: Homo sapiens, HCT-116
Description: as §1

SW1417 = test: Cell proliferation, CCK-8; conditions: Homo sapiens; SW1417, CCK8, 48 h
Description: as §1

SW620 = test: Cell proliferation, CCK-8; conditions: Homo sapiens, SW-620; SW620, CCK8, 48 h
Description: as §1

LS123 = test: Cell proliferation, CCK-8; conditions: Homo sapiens, LS-123; LS123, CCK8, 48 h
Description: as §1

NCI-H716 = test: Cell proliferation, CCK-8; conditions: Homo sapiens; NCI-H716, CCK8, 48 h
Description: as §1

HCT15 = test: Cell proliferation, CCK-8; conditions: Homo sapiens, HCT-15; HCT15, CCK8, 48 h
Description: as §1

RKO = test: Cell proliferation, CCK-8; conditions: Homo sapiens, CCK8, 48 h
Description: as §1

SW1116 = test: Cell proliferation, CCK-8; conditions: Homo sapiens, SW 1116; SW1116, CCK8, 48 h
Description: as §1

LS180 = test: Cell proliferation, CCK-8; conditions: Homo sapiens; LS180, CCK8, 48 h
Description: as §1

LS1034 = test: Cell proliferation, CCK-8; conditions: Homo sapiens, LS-1034; LS1034, CCK8, 48 h
Description: as §1

Colo205 = test: Cell proliferation, CCK-8; conditions: Homo sapiens, COLO 205; Colo205, CCK8, 48 h
Description: as §1

DLD-1 = test: Cell proliferation, CCK-8; conditions: Homo sapiens; DLD-1, CCK8, 48 h
Description: as §1

LS513 = test: Cell proliferation, CCK-8; conditions: Homo sapiens, LS-513; LS513, CCK8, 48 h
Description: as §1

Colo320DM = test: Cell proliferation, CCK-8; conditions: Homo sapiens, COLO 320DM, CCK8, 48 h
Description: as §1

Cc1cc(F)c(Br)cc1NS(=O)(=O)c1ccc(NS(=O)(=O)c2cc(Cl)cc(Cl)c2)cc1CN1CCOC[C@H]1C [MDL-811]
cytotoxicity (LDH release) (FHC cells): low cytotoxic effect | IC50 (Caco2): 28.7 ± 1.7 µM | IC50 (SW48): 10.8 ± 1.5 µM | IC50 (T84): 13 ± 1.4 µM | IC50 (SW1463): 13 ± 1.5 µM | IC50 (Colo201): 20.3 ± 1.4 µM | IC50 (HCT8): 20.1 ± 2 µM | IC50 (HCT116; HCT116, CCK8, 48 h, read-out: IC50 ± s.d.): 4.7 ± 0.2 µM | IC50 (HCT116; HCT116, CCK-8, 48 h, Figure S6, mean ± s.e.m. of three experiments, read-out: IC50): 4.8 ± 0.2 µM | IC50 (SW1417): 15.1 ± 1.9 µM | IC50 (SW620): 16.7 ± 1.4 µM | IC50 (LS123): 19.8 ± 0.5 µM | IC50 (NCI-H716): 61 ± 2.3 µM | IC50 (HCT15): 20.5 ± 1.3 µM | IC50 (RKO): 12.3 ± 1.8 µM | IC50 (SW1116): 5.7 ± 0.3 µM | IC50 (LS180): 19.1 ± 0.4 µM | IC50 (LS1034): 31.9 ± 0.7 µM | IC50 (Colo205): 38.1 ± 4.4 µM | IC50 (DLD-1): 18 ± 0.1 µM | IC50 (LS513): 28.6 ± 0.6 µM | IC50 (Colo320DM): 33.2 ± 0.9 µM
